Reference: US5041355A, “High contrast photographic element including an aryl sulfonamidophenyl hydrazide containing ethyleneoxy groups” (Eastman Kodak Company, priority 1990, dated 1991)

Assay: relative speed and contrast of silver halide coatings containing nucleator and incorporated booster, exposed and processed in developer
Details: for Relative Speed: 1 minute at 35° C., developer pH 10.5; for lower scale activity (speed): in words
Procedure: Each coating used in the following examples was prepared on a polyester support, using a mono-dispersed 0.24 μm AgBrI (2.5 mol % iodide) iridium-doped emulsion at 3.51 g/m^2 Ag, 2.54 g gel/m^2, and 1.08 g latex/m^2 where the latex is a copolymer of methyl acrylate, 2-acrylamido-2-methylpropane sulfonic acid, and 2-acetoacetoxyethylmethylacrylate. The silver halide emulsion was spectrally sensitized with 214 mg/Ag mol of anhydro-5,5'-dichloro-9-ethyl-3,3'-di-(3-sulfopropyl)oxacarbocyanine hydroxide, triethylene salt and the emulsion layer was overcoated with gelatin containing polymethylmethacrylate beads. The nucleating agent was added as a methanol solution to the emulsion melts at a level in millimoles (mM) per mole of silver as hereinafter indicated. An "incorporated booster" was added as a methanol solution in an amount of 64.6 milligrams per square meter of photographic element. The compound employed as the "incorporated booster" is represented by the formula: [drawing 8] where Pr represents n-propyl. Coatings were exposed for five seconds to a 3000° K. tungsten light source and processed for 1 minute at 35° C. in the developer solution.
To prepare the developer solution, a concentrate was prepared from the following ingredients:
The concentrate was diluted at a ratio of one part of concentrate to two parts of water to produce a working strength developing solution with a pH of 10.5.

[1] = concentration of nucleator 1.0 mM/Ag mole
[2] = concentration of nucleator 2.0 mM/Ag mole

Compound	Relative Speed [1]	Relative Speed (concentration of nucleator 1.9 mM/Ag mole)	lower scale activity (speed)	speed compared with Test 2 (Test 7 (1.0 mM/Ag mole) versus Test 2 (2.0 mM/Ag mole))	Relative Speed [2]
CCCCCOCCOCCOCCOCCOc1ccc(S(=O)(=O)Nc2ccc(NNC=O)cc2)cc1OCCOCCOCCOCCOCCCCC [hydrazide I-8]	98	105	beneficial effects upon lower scale activity (speed)	–	–
CCCCCCCOCCOCCOCCOCCOCCOCCOCCOCCOCCOc1ccc(S(=O)(=O)Nc2ccc(NNC=O)cc2)cc1 [hydrazide I-4]	105	–	beneficial effects upon lower scale activity (speed)	somewhat greater speed	110
CCCCCCCCOCCOCCOc1ccc(S(=O)(=O)Nc2ccc(NNC=O)cc2)cc1 [reference compound]	87	–	–	–	93
CC(C)c1ccc(C(C)C)c(S(=O)(=O)Nc2ccc(NNC=O)cc2)c1 [reference compound]	87	–	–	–	100
